From PubChem BioAssay (NCI)
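How tested: cells in 96-well plates exposed to compound for 48 hours at five concentrations. GI50: concentration for 50% inhibition of growth. Definition used: TGI = concentration required for complete inhibition of growth.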

Legend:
Assay in all cases: DTP human tumour cell line panel, 48 h
HCC-2998 colon = test system: HCC-2998 colon
OVCAR-5 ovarian = test system: OVCAR-5 ovarian
786-0 renal = test system: 786-0 renal
OVCAR-8 ovarian = test system: OVCAR-8 ovarian
MALME-3M melanoma = test system: MALME-3M melanoma
KM12 colon = test system: KM12 colon
SK-MEL-28 melanoma = test system: SK-MEL-28 melanoma
MDA-MB-435 = test system: MDA-MB-435
SF-295 CNS = test system: SF-295 CNS
SN12C renal = test system: SN12C renal
SNB-75 CNS = test system: SNB-75 CNS
NCI-H460 lung = test system: NCI-H460 lung
UACC-62 melanoma = test system: UACC-62 melanoma
HOP-62 NSCLC = test system: HOP-62 NSCLC
HOP-92 NSCLC = test system: HOP-92 NSCLC
U251 CNS = test system: U251 CNS
HCT-15 colon = test system: HCT-15 colon
DU-145 prostate = test system: DU-145 prostate
OVCAR-4 ovarian = test system: OVCAR-4 ovarian
NCI-H522 lung = test system: NCI-H522 lung
HCT-116 colon = test system: HCT-116 colon
SK-OV-3 ovarian = test system: SK-OV-3 ovarian
UO-31 renal = test system: UO-31 renal
SF-268 CNS = test system: SF-268 CNS
UACC-257 melanoma = test system: UACC-257 melanoma
CAKI-1 renal = test system: CAKI-1 renal
K-562 leukemia = test system: K-562 leukemia
LOX IMVI melanoma = test system: LOX IMVI melanoma
COLO 205 colon = test system: COLO 205 colon
IGROV1 ovarian = test system: IGROV1 ovarian
MOLT-4 leukemia = test system: MOLT-4 leukemia
SW-620 colon = test system: SW-620 colon
NCI-H23 lung = test system: NCI-H23 lung
T-47D breast = test system: T-47D breast
RXF 393 renal = test system: RXF 393 renal
TK-10 renal = test system: TK-10 renal
SK-MEL-2 melanoma = test system: SK-MEL-2 melanoma
MDA-MB-231 breast = test system: MDA-MB-231 breast
SR leukemia = test system: SR leukemia
MCF7 breast = test system: MCF7 breast
HS 578T breast = test system: HS 578T breast
NCI/ADR-RES ovarian = test system: NCI/ADR-RES ovarian
SK-MEL-5 melanoma = test system: SK-MEL-5 melanoma
OVCAR-3 ovarian = test system: OVCAR-3 ovarian
SF-539 CNS = test system: SF-539 CNS
PC-3 prostate = test system: PC-3 prostate
A498 renal = test system: A498 renal
NCI-H226 lung = test system: NCI-H226 lung
HT29 colon = test system: HT29 colon
SNB-19 CNS = test system: SNB-19 CNS
CCRF-CEM leukemia = test system: CCRF-CEM leukemia
BT-549 breast = test system: BT-549 breast
RPMI-8226 leukemia = test system: RPMI-8226 leukemia
A549 NSCLC = test system: A549 NSCLC
ACHN renal = test system: ACHN renal
HL-60(TB) leukemia = test system: HL-60(TB) leukemia
M14 melanoma = test system: M14 melanoma

Cc1cc(/C=C2\SC(=Nc3ccccc3)N(C3CCCC3)C2=O)c(C)n1-c1ccc(Cl)cc1
GI50 (HCC-2998 colon): > 100 µM | TGI (HCC-2998 colon): > 100 µM | GI50 (OVCAR-5 ovarian): > 100 µM | TGI (OVCAR-5 ovarian): > 100 µM | GI50 (786-0 renal): > 100 µM | TGI (786-0 renal): > 100 µM | GI50 (OVCAR-8 ovarian): > 100 µM | TGI (OVCAR-8 ovarian): > 100 µM | GI50 (MALME-3M melanoma): > 100 µM | TGI (MALME-3M melanoma): > 100 µM | GI50 (KM12 colon): > 100 µM | TGI (KM12 colon): > 100 µM | GI50 (SK-MEL-28 melanoma): > 100 µM | TGI (SK-MEL-28 melanoma): > 100 µM | GI50 (MDA-MB-435): > 100 µM | TGI (MDA-MB-435): > 100 µM | GI50 (SF-295 CNS): > 100 µM | TGI (SF-295 CNS): > 100 µM | GI50 (SN12C renal): > 100 µM | TGI (SN12C renal): > 100 µM | GI50 (SNB-75 CNS): > 100 µM | TGI (SNB-75 CNS): > 100 µM | GI50 (NCI-H460 lung): > 100 µM | TGI (NCI-H460 lung): > 100 µM | GI50 (UACC-62 melanoma): > 100 µM | TGI (UACC-62 melanoma): > 100 µM | GI50 (HOP-62 NSCLC): > 100 µM | TGI (HOP-62 NSCLC): > 100 µM | GI50 (HOP-92 NSCLC): > 100 µM | TGI (HOP-92 NSCLC): > 100 µM | GI50 (U251 CNS): > 100 µM | TGI (U251 CNS): > 100 µM | GI50 (HCT-15 colon): > 100 µM | TGI (HCT-15 colon): > 100 µM | GI50 (DU-145 prostate): > 100 µM | TGI (DU-145 prostate): > 100 µM | GI50 (OVCAR-4 ovarian): > 100 µM | TGI (OVCAR-4 ovarian): > 100 µM | GI50 (NCI-H522 lung): > 100 µM | TGI (NCI-H522 lung): > 100 µM | GI50 (HCT-116 colon): > 100 µM | TGI (HCT-116 colon): > 100 µM | GI50 (SK-OV-3 ovarian): > 100 µM | TGI (SK-OV-3 ovarian): > 100 µM | GI50 (UO-31 renal): > 100 µM | TGI (UO-31 renal): > 100 µM | GI50 (SF-268 CNS): > 100 µM | TGI (SF-268 CNS): > 100 µM | GI50 (UACC-257 melanoma): > 100 µM | TGI (UACC-257 melanoma): > 100 µM | GI50 (CAKI-1 renal): > 100 µM | TGI (CAKI-1 renal): > 100 µM | GI50 (K-562 leukemia): > 100 µM | TGI (K-562 leukemia): > 100 µM | GI50 (LOX IMVI melanoma): > 100 µM | TGI (LOX IMVI melanoma): > 100 µM | GI50 (COLO 205 colon): > 100 µM | TGI (COLO 205 colon): > 100 µM | GI50 (IGROV1 ovarian): > 100 µM | TGI (IGROV1 ovarian): > 100 µM | GI50 (MOLT-4 leukemia): > 100 µM | TGI (MOLT-4 leukemia): > 100 µM | GI50 (SW-620 colon): > 100 µM | TGI (SW-620 colon): > 100 µM | GI50 (NCI-H23 lung): > 100 µM | TGI (NCI-H23 lung): > 100 µM | GI50 (T-47D breast): > 100 µM | TGI (T-47D breast): > 100 µM | GI50 (RXF 393 renal): > 100 µM | TGI (RXF 393 renal): > 100 µM | GI50 (TK-10 renal): > 100 µM | TGI (TK-10 renal): > 100 µM | GI50 (SK-MEL-2 melanoma): > 100 µM | TGI (SK-MEL-2 melanoma): > 100 µM | GI50 (MDA-MB-231 breast): > 100 µM | TGI (MDA-MB-231 breast): > 100 µM | GI50 (SR leukemia): > 100 µM | TGI (SR leukemia): > 100 µM | GI50 (MCF7 breast): > 100 µM | TGI (MCF7 breast): > 100 µM | GI50 (HS 578T breast): > 100 µM | TGI (HS 578T breast): > 100 µM | GI50 (NCI/ADR-RES ovarian): > 100 µM | TGI (NCI/ADR-RES ovarian): > 100 µM | GI50 (SK-MEL-5 melanoma): > 100 µM | TGI (SK-MEL-5 melanoma): > 100 µM | GI50 (OVCAR-3 ovarian): > 100 µM | TGI (OVCAR-3 ovarian): > 100 µM | GI50 (SF-539 CNS): > 100 µM | TGI (SF-539 CNS): > 100 µM | GI50 (PC-3 prostate): 75.5 µM | TGI (PC-3 prostate): > 100 µM | GI50 (A498 renal): 0.295 µM | TGI (A498 renal): > 100 µM | GI50 (NCI-H226 lung): > 100 µM | TGI (NCI-H226 lung): > 100 µM | GI50 (HT29 colon): > 100 µM | TGI (HT29 colon): > 100 µM | GI50 (SNB-19 CNS): > 100 µM | TGI (SNB-19 CNS): > 100 µM | GI50 (CCRF-CEM leukemia): > 100 µM | TGI (CCRF-CEM leukemia): > 100 µM | GI50 (BT-549 breast): > 100 µM | TGI (BT-549 breast): > 100 µM | GI50 (RPMI-8226 leukemia): > 100 µM | TGI (RPMI-8226 leukemia): > 100 µM | GI50 (A549 NSCLC): > 100 µM | TGI (A549 NSCLC): > 100 µM | GI50 (ACHN renal): > 100 µM | TGI (ACHN renal): > 100 µM | GI50 (HL-60(TB) leukemia): > 100 µM | TGI (HL-60(TB) leukemia): > 100 µM

CC[N+](CC)=c1ccc2nc3c(cc(N)c4ccccc43)oc-2c1
GI50 (HCC-2998 colon): 0.257 µM | TGI (HCC-2998 colon): 0.661 µM | GI50 (OVCAR-5 ovarian): 0.24 µM | TGI (OVCAR-5 ovarian): 0.495 µM | GI50 (OVCAR-8 ovarian): 1.07 µM | TGI (OVCAR-8 ovarian): 3.43 µM | GI50 (KM12 colon): 0.247 µM | TGI (KM12 colon): 0.666 µM | GI50 (SF-295 CNS): 0.111 µM | TGI (SF-295 CNS): 0.288 µM | GI50 (SNB-75 CNS): 0.61 µM | TGI (SNB-75 CNS): 1.88 µM | GI50 (HOP-92 NSCLC): 0.19 µM | TGI (HOP-92 NSCLC): 0.497 µM | GI50 (SK-OV-3 ovarian): 1.37 µM | TGI (SK-OV-3 ovarian): 2.7 µM | GI50 (UACC-257 melanoma): 1.56 µM | TGI (UACC-257 melanoma): 3.05 µM | GI50 (MOLT-4 leukemia): 0.122 µM | TGI (MOLT-4 leukemia): 0.334 µM | GI50 (NCI-H23 lung): 0.125 µM | TGI (NCI-H23 lung): 0.358 µM | GI50 (RXF 393 renal): 0.173 µM | TGI (RXF 393 renal): 0.319 µM | GI50 (TK-10 renal): 0.489 µM | TGI (TK-10 renal): 1.14 µM | GI50 (SK-MEL-2 melanoma): 0.968 µM | TGI (SK-MEL-2 melanoma): 2.25 µM | GI50 (MDA-MB-231 breast): 0.363 µM | TGI (MDA-MB-231 breast): 1.73 µM | GI50 (SK-MEL-5 melanoma): 0.125 µM | TGI (SK-MEL-5 melanoma): 0.27 µM | GI50 (SF-539 CNS): 0.174 µM | TGI (SF-539 CNS): 0.32 µM | GI50 (PC-3 prostate): 0.567 µM | TGI (PC-3 prostate): 6.94 µM | GI50 (SNB-19 CNS): 0.318 µM | TGI (SNB-19 CNS): 1.04 µM | GI50 (M14 melanoma): 0.216 µM | TGI (M14 melanoma): 0.61 µM | GI50 (CCRF-CEM leukemia): 0.183 µM | GI50 (BT-549 breast): 1.11 µM | TGI (BT-549 breast): 2.41 µM | GI50 (RPMI-8226 leukemia): 0.0412 µM | TGI (RPMI-8226 leukemia): 0.399 µM | GI50 (ACHN renal): 0.412 µM | TGI (ACHN renal): 1.72 µM | GI50 (HL-60(TB) leukemia): 0.134 µM | TGI (HL-60(TB) leukemia): 0.326 µM
